Measurements: patent US9480251B2, “Insecticidal compositions and method for insect control” (FMC Corporation, priority 2010, dated 2016)

Legend:
Type in all cases: in vivo
[1] = system: green peach aphid (Myzus persicae); experiment: Spray to runoff of infested bell pepper plant, green peach aphid; conditions: infested bell pepper plant sprayed until runoff
Procedure: (§1) Formulations of geraniol, cedar oil and mixtures thereof were evaluated for contact toxicity against the Lasius ant (Lasius niger), lady beetle (Harmonia axyridis), brown stink bug (Halyomorpha halys), green peach aphid (Myzus persicae), house cricket (Acheta domesticus) and […] bug (Pseudococcus longispinus). […] Each test solution was poured into a 16 ounce spray can, a valve was installed and the can was charged with carbon dioxide as the propellant. Direct spraying of the test substance onto insects was performed to determine the efficacy of each test solution as follows: Green peach aphid test-In separate tests, a bell pepper plant, infested with green peach aphids, was sprayed with the appropriate test solution until runoff.

[2] = system: Lasius ant (Lasius niger); experiment: Direct spray contact toxicity, Lasius ant; conditions: ten insects on asphalt slab, directly sprayed for 2 seconds
Procedure: as §1, with “Lasius ant and lady beetle” for “Green peach aphid”, “ten insects of each species were placed onto an asphalt slab and directly” for “a bell pepper plant, infested with green peach aphids, was”, “sprayed for 2 seconds” for “sprayed”, “solutions.” for “solution until runoff.”

[3] = system: house cricket (Acheta domesticus); experiment: Direct spray contact toxicity, house cricket; conditions: ten insects on concrete slab, directly sprayed for 2 seconds
Procedure: as §1, with “Brown stink bug and house cricket” for “Green peach aphid”, “tests, ten insects of each species were placed onto” for “tests,”, “concrete slab and directly” for “bell pepper plant, infested with green peach aphids, was”, “sprayed for 2 seconds” for “sprayed”, “solutions.” for “solution until runoff.”

[4] = system: brown stink bug (Halyomorpha halys); experiment: Direct spray contact toxicity, brown stink bug; conditions: ten insects on concrete slab, directly sprayed for 2 seconds
Procedure: as §1, with “Brown stink bug and house cricket” for “Green peach aphid”, “tests, ten insects of each species were placed onto” for “tests,”, “concrete slab and directly” for “bell pepper plant, infested with green peach aphids, was”, “sprayed for 2 seconds” for “sprayed”, “solutions.” for “solution until runoff.”

[5] = system: longtail mealy bug (Pseudococcus longispinus); experiment: Spray to runoff of infested Euonymus leaves, longtail mealy bug; conditions: ten bugs on variegated Euonymus leaves sprayed until runoff, assessed after 24 hours
Procedure: Formulations of geraniol, cedar oil and mixtures thereof were evaluated for contact toxicity against the Lasius ant (Lasius niger), lady beetle (Harmonia axyridis), brown stink bug (Halyomorpha halys), green peach aphid (Myzus persicae), house cricket (Acheta domesticus) and longtail mealy bug (Pseudococcus longispinus). The plant oil test solutions were prepared by dissolving the appropriate amount of the plant oil(s) in deionized water containing 0.5% by weight sodium laureth sulfate, for example 4.4 grams of geraniol was dissolved in 1 liter of deioinized water containing 5 grams of sodium laureth sulfate to prepare a 0.44% test solution of geraniol. Each test solution was poured into a 16 ounce spray can, a valve was installed and the can was charged with carbon dioxide as the propellant. Direct spraying of the test substance onto insects was performed to determine the efficacy of each test solution as follows:
Longtail mealy bug test—In separate tests, ten longtail mealy bugs were established on several leaves of a variegated Euonymus plant, the infested leaves were sprayed with the appropriate test solution until runoff.

[6] = system: lady beetle (Harmonia axyridis); experiment: Direct spray contact toxicity, lady beetle; conditions: ten insects on asphalt slab, directly sprayed for 2 seconds
Procedure: as §1, with “Lasius ant and lady beetle” for “Green peach aphid”, “ten insects of each species were placed onto an asphalt slab and directly” for “a bell pepper plant, infested with green peach aphids, was”, “sprayed for 2 seconds” for “sprayed”, “solutions.” for “solution until runoff.”

SMILES: CC(C)=CCC/C(C)=C/CO [0.44% geraniol, trans-3,7-dimethyl-2,6-octadien-1-ol]
- Recovery from knockdown [1]: None
- Time to 100% Knockdown [1]: No apparent
- Time to 100% mortality [1]: 3 h
- Recovery from knockdown [2]: None
- Time to 100% Knockdown [2]: 9 s
- Time to 100% mortality [2]: 20 s
- Recovery from knockdown [3]: None
- Time to 100% Knockdown [3]: 60 s
- Time to 100% mortality [3]: 3 h
- Recovery from knockdown [4]: None
- Time to 100% Knockdown [4]: 20 s
- Time to 100% mortality [4]: 90 s
- mortality at 24 hours [5]: 50% mortality at
- Recovery from knockdown [6]: None
- Time to 100% Knockdown [6]: 20 s
- Time to 100% mortality [6]: 60 s
